According to the OligoGym collection:
Where “and” joins values, the source holds several entries; their conditions need not be identical. Equal values may be shown once. HELM strings list units from the 5' end as sugar, base in round brackets, then linkage (d deoxyribose, r ribose, m 2'-O-methyl, p phosphodiester). Strings are as the collection lists them, not checked against the first reports. ss, as = sense and antisense strand; [lna] = locked nucleic acid (LNA); [hna] = hexitol nucleic acid; [s4r] = 4'-thioribose; [fl2r] = 2'-fluoro

Details: siRNA
Note: test system not given here.

Substance	target mRNA knockdown
RNA1{r(A)p.r(A)p.m(U)p.r(A)p.r(A)p.r(G)p.r(C)p.r(A)p.r(G)p.r(C)p.r(U)p.r(C)p.r(G)p.r(C)p.r(G)p.r(C)p.r(U)p.r(C)p.r(C)p.r(T)p.r(T)}|RNA2{r(G)p.r(G)p.r(A)p.r(G)p.r(C)p.r(G)p.r(C)p.r(G)p.r(A)p.r(G)p.r(C)p.r(U)p.r(G)p.r(C)p.r(U)p.m(U)p.r(A)p.r(U)p.r(U)p.r(T)p.r(T)}$$$RNA1{StrandType:ss}|RNA2{StrandType:as}$	69%
RNA1{r(A)p.m(C)p.m(C)p.m(U)p.m(U)p.m(U)p.m(C)p.m(C)p.r(A)p.m(C)p.m(U)p.m(U)p.m(C)p.m(U)p.r(A)p.r(A)p.r(G)p.m(C)p.m(C)p.r(T)p.r(T)}|RNA2{r(G)p.r(G)p.r(C)p.r(U)p.r(U)p.r(A)p.r(G)p.r(A)p.r(A)p.r(G)p.r(U)p.r(G)p.r(G)p.r(A)p.r(A)p.r(A)p.r(G)p.r(G)p.r(U)p.r(T)p.r(T)}$$$RNA1{StrandType:ss}|RNA2{StrandType:as}$	75%
RNA1{m(U)p.r(C)p.m(C)p.r(C)p.m(U)p.r(U)p.m(C)p.r(C)p.m(A)p.r(C)p.m(C)p.r(G)p.m(C)p.r(C)p.m(A)p.r(U)p.m(A)p.r(U)p.m(U)p.r(T)p.r(T)}|RNA2{r(A)p.r(A)p.r(U)p.r(A)p.r(U)p.r(G)p.r(G)p.r(C)p.r(G)p.r(G)p.r(U)p.r(G)p.r(G)p.r(A)p.r(A)p.r(G)p.r(G)p.r(G)p.r(A)p.r(T)p.r(T)}$$$RNA1{StrandType:ss}|RNA2{StrandType:as}$	11%
RNA1{r(G)p.r(A)p.r(U)p.r(U)p.r(C)p.r(C)p.r(A)p.r(A)p.r(A)p.r(C)p.r(C)p.r(C)p.r(C)p.r(A)p.r(C)p.m(U)p.r(A)p.r(U)p.r(C)p.r(T)p.r(T)}|RNA2{r(G)p.r(A)p.r(U)p.m(A)p.r(G)p.r(U)p.r(G)p.r(G)p.r(G)p.r(G)p.r(U)p.r(U)p.r(U)p.r(G)p.r(G)p.r(A)p.r(A)p.r(U)p.r(C)p.r(T)p.r(T)}$$$RNA1{StrandType:ss}|RNA2{StrandType:as}$	69%
RNA1{r(A)p.r(A)p.r(A)p.r(C)p.r(C)p.r(C)p.r(C)p.m(U)p.r(A)p.r(G)p.r(A)p.r(G)p.r(G)p.r(G)p.r(C)p.r(A)p.r(A)p.r(G)p.r(U)p.r(T)p.r(T)}|RNA2{r(A)p.r(C)p.r(U)p.r(U)p.r(G)p.r(C)p.r(C)p.r(C)p.r(U)p.r(C)p.m(U)p.r(A)p.r(G)p.r(G)p.r(G)p.r(G)p.r(U)p.r(U)p.r(U)p.r(T)p.r(T)}$$$RNA1{StrandType:ss}|RNA2{StrandType:as}$	75%
RNA1{[lna](A)p.r(U)p.r(C)p.r(U)p.r(G)p.r(A)p.r(A)p.r(G)p.r(A)p.r(A)p.r(G)p.r(G)p.r(A)p.r(G)p.r(A)p.r(A)p.r(A)p.r(A)p.r(A)p.[lna](T)p.[lna](T)}|RNA2{r(U)p.r(U)p.r(U)p.r(U)p.r(U)p.r(C)p.r(U)p.r(C)p.r(C)p.r(U)p.r(U)p.r(C)p.r(U)p.r(U)p.r(C)p.r(A)p.r(G)p.r(A)p.r(U)p.[lna](T)p.[lna](T)}$$$RNA1{StrandType:ss}|RNA2{StrandType:as}$	93% and 95%
RNA1{m(C)p.r(A)p.r(G)p.r(A)p.r(G)p.m(C)p.r(A)p.r(A)p.m(U)p.m(U)p.r(G)p.m(U)p.m(U)p.m(U)p.r(A)p.m(C)p.m(C)p.m(U)p.r(A)p.r(T)p.r(T)}|RNA2{m(U)p.r(A)p.r(G)p.r(G)p.m(U)p.r(A)p.r(A)p.r(A)p.m(C)p.r(A)p.r(A)p.m(U)p.m(U)p.r(G)p.m(C)p.m(U)p.m(C)p.r(U)p.r(G)p.r(T)p.r(T)}$$$RNA1{StrandType:ss}|RNA2{StrandType:as}$	75%
RNA1{m(A)p.r(U)p.m(C)p.r(C)p.m(U)p.r(G)p.m(C)p.r(A)p.m(G)p.r(A)p.m(A)p.r(G)p.m(A)p.r(A)p.m(G)p.r(C)p.m(C)p.r(U)p.m(C)p.r(T)p.r(T)}|RNA2{r(G)p.r(A)p.r(G)p.r(G)p.m(C)p.r(U)p.r(U)p.m(C)p.r(U)p.r(U)p.m(C)p.r(U)p.r(G)p.m(C)p.r(A)p.r(G)p.r(G)p.r(A)p.r(U)p.r(T)p.r(T)}$$$RNA1{StrandType:ss}|RNA2{StrandType:as}$	37%
RNA1{r(A)p.r(C)p.r(C)p.r(U)p.r(U)p.r(U)p.r(C)p.r(C)p.r(A)p.r(C)p.r(U)p.r(U)p.r(C)p.r(U)p.r(A)p.r(A)p.r(G)p.r(C)p.r(C)p.r(T)p.r(T)}|RNA2{r(G)p.r(G)p.r(C)p.m(U)p.m(U)p.r(A)p.r(G)p.r(A)p.r(A)p.r(G)p.m(U)p.r(G)p.r(G)p.r(A)p.r(A)p.r(A)p.r(G)p.r(G)p.m(U)p.r(T)p.r(T)}$$$RNA1{StrandType:ss}|RNA2{StrandType:as}$	80%
RNA1{r(G)p.r(A)p.r(A)p.r(G)p.r(A)p.r(G)p.r(U)p.m(U)p.r(A)p.r(A)p.r(C)p.r(C)p.r(C)p.m(G)p.r(G)p.r(G)p.m(A)p.r(C)p.r(U)p.r(T)p.r(T)}|RNA2{r(A)p.r(G)p.r(U)p.r(C)p.r(C)p.r(C)p.r(G)p.r(G)p.r(G)p.r(U)p.m(U)p.r(A)p.r(A)p.r(C)p.r(U)p.r(C)p.r(U)p.r(U)p.r(C)p.r(T)p.r(T)}$$$RNA1{StrandType:ss}|RNA2{StrandType:as}$	47%
RNA1{[hna](G)p.[hna](A)p.[hna](C)p.r(G)p.r(U)p.r(A)p.r(A)p.r(A)p.r(C)p.r(G)p.r(G)p.r(C)p.r(C)p.r(A)p.r(C)p.r(A)p.r(A)p.[hna](G)p.[hna](U)p.[hna](U)p.d(T)}|RNA2{r(A)p.r(C)p.r(U)p.r(U)p.r(G)p.r(U)p.r(G)p.r(G)p.r(C)p.r(C)p.r(G)p.r(U)p.r(U)p.r(U)p.r(A)p.r(C)p.r(G)p.r(U)p.r(C)p.r(G)p.r(C)}$$$RNA1{StrandType:ss}|RNA2{StrandType:as}$	89%
RNA1{r(C)p.r(U)p.r(U)p.r(A)p.r(C)p.r(G)p.r(C)p.r(U)p.r(G)p.r(A)p.r(G)p.r(U)p.r(A)p.r(C)p.r(U)p.r(U)p.r(C)p.r(G)p.r(A)p.d(T)p.d(T)}|RNA2{[lna](T)p.r(C)p.r(G)p.r(A)p.r(A)p.r(G)p.r(U)p.[lna](A)p.r(C)p.r(U)p.[lna](C)p.r(A)p.r(G)p.r(C)p.r(G)p.r(U)p.[lna](A)p.r(A)p.r(G)p.[lna](T)p.[lna](T)}$$$RNA1{StrandType:ss}|RNA2{StrandType:as}$	15%
RNA1{[s4r](C)p.[s4r](G)p.[s4r](U)p.[s4r](A)p.[s4r](C)p.[s4r](G)p.r(C)p.r(G)p.r(G)p.r(A)p.r(A)p.r(U)p.r(A)p.[s4r](C)p.[s4r](U)p.[s4r](U)p.[s4r](C)p.[s4r](G)p.[s4r](A)p.r(T)p.r(T)}|RNA2{r(G)p.r(C)p.r(G)p.r(A)p.r(A)p.r(G)p.r(U)p.r(A)p.r(U)p.r(U)p.r(C)p.r(C)p.r(G)p.r(C)p.r(G)p.r(U)p.r(A)p.[s4r](C)p.[s4r](G)p.r(T)p.r(T)}$$$RNA1{StrandType:ss}|RNA2{StrandType:as}$	74.2%
RNA1{r(U)p.r(C)p.r(C)p.r(C)p.r(U)p.r(U)p.r(C)p.m(C)p.r(A)p.r(C)p.r(C)p.r(G)p.r(C)p.m(C)p.r(A)p.m(U)p.r(A)p.r(U)p.r(U)p.r(T)p.r(T)}|RNA2{r(A)p.r(A)p.m(U)p.r(A)p.m(U)p.r(G)p.r(G)p.r(C)p.r(G)p.r(G)p.m(U)p.r(G)p.r(G)p.r(A)p.r(A)p.r(G)p.r(G)p.r(G)p.r(A)p.r(T)p.r(T)}$$$RNA1{StrandType:ss}|RNA2{StrandType:as}$	47%
RNA1{r(C)p.r(U)p.r(U)p.r(A)p.r(C)p.r(G)p.r(C)p.r(U)p.r(G)p.r(A)p.r(G)p.r(U)p.r(A)p.r(C)p.r(U)p.r(U)p.r(C)p.r(G)p.r(A)p.r(T)p.r(T)}|RNA2{r(T)p.r(C)p.r(G)p.r(A)p.r(A)p.r(G)p.r(U)p.r(A)p.r(C)p.r(U)p.r(C)p.r(A)p.r(G)p.r(C)p.r(G)p.r(U)p.r(A)p.[lna](A)p.r(G)p.[lna](T)p.[lna](T)}$$$RNA1{StrandType:ss}|RNA2{StrandType:as}$	95%
RNA1{r(A)p.r(U)p.r(C)p.r(G)p.r(A)p.r(C)p.r(C)p.[fl2r](U)p.r(G)p.r(A)p.r(A)p.r(G)p.r(G)p.r(A)p.r(G)p.[fl2r](U)p.r(A)p.r(C)p.r(G)p.r(T)p.r(T)}|RNA2{r(C)p.r(G)p.[fl2r](U)p.r(A)p.r(C)p.r(U)p.r(C)p.r(C)p.r(U)p.r(U)p.[fl2r](C)p.r(A)p.r(G)p.r(G)p.r(U)p.r(C)p.r(G)p.r(A)p.r(U)p.r(T)p.r(T)}$$$RNA1{StrandType:ss}|RNA2{StrandType:as}$	46%
RNA1{r(A)p.r(G)p.[fl2r](U)p.r(A)p.r(A)p.r(U)p.r(C)p.r(C)p.r(G)p.r(G)p.r(A)p.r(C)p.r(U)p.r(C)p.r(A)p.r(A)p.r(C)p.r(U)p.r(C)p.r(T)p.r(T)}|RNA2{r(G)p.r(A)p.r(G)p.r(U)p.r(U)p.r(G)p.r(A)p.r(G)p.r(U)p.r(C)p.r(C)p.r(G)p.r(G)p.r(A)p.r(U)p.[fl2r](U)p.r(A)p.r(C)p.r(U)p.r(T)p.r(T)}$$$RNA1{StrandType:ss}|RNA2{StrandType:as}$	69%
RNA1{r(U)p.r(C)p.r(C)p.r(G)p.r(G)p.r(C)p.[fl2r](U)p.r(A)p.r(A)p.r(C)p.r(U)p.r(C)p.[fl2r](U)p.r(G)p.r(A)p.r(G)p.r(G)p.r(A)p.r(C)p.r(T)p.r(T)}|RNA2{r(G)p.r(U)p.r(C)p.r(C)p.r(U)p.[fl2r](C)p.r(A)p.r(G)p.r(A)p.r(G)p.r(U)p.r(U)p.r(A)p.r(G)p.r(C)p.r(C)p.[fl2r](G)p.r(G)p.r(A)p.r(T)p.r(T)}$$$RNA1{StrandType:ss}|RNA2{StrandType:as}$	85%
RNA1{r(G)p.m(C)p.r(A)p.r(G)p.r(A)p.r(G)p.r(A)p.r(A)p.m(U)p.m(C)p.m(U)p.r(A)p.m(C)p.m(C)p.m(U)p.m(U)p.m(U)p.m(C)p.m(C)p.r(T)p.r(T)}|RNA2{r(G)p.r(G)p.r(A)p.r(A)p.r(A)p.r(G)p.r(G)p.m(U)p.r(A)p.r(G)p.r(A)p.m(U)p.m(U)p.m(C)p.m(U)p.m(C)p.m(U)p.r(G)p.m(C)p.r(T)p.r(T)}$$$RNA1{StrandType:ss}|RNA2{StrandType:as}$	13%
RNA1{r(C)p.r(U)p.r(C)p.r(C)p.r(G)p.r(A)p.m(C)p.m(A)p.r(G)p.r(A)p.m(U)p.r(G)p.r(A)p.r(A)p.r(G)p.r(G)p.r(A)p.r(A)p.r(A)p.r(T)p.r(T)}|RNA2{r(U)p.r(U)p.r(U)p.r(C)p.r(C)p.r(U)p.r(U)p.m(C)p.r(A)p.r(U)p.r(C)p.m(U)p.m(G)p.r(U)p.r(C)p.r(G)p.r(G)p.r(A)p.r(G)p.r(T)p.r(T)}$$$RNA1{StrandType:ss}|RNA2{StrandType:as}$	70%
